“And” between values parts separate entries of the source, which are not always exact repeats. Identical values can stand only once.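 96-well plates; 48 h exposure; 5 concentrations. Endpoints by linear interpolation between flanking doses. Not reached: highest tested concentration assigned. Abbreviation: GI50, concentration required for 50% inhibition of growth. The concentration for full growth arrest is given as TGI.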
How the values were obtained:
Assay in all cases: NCI anticancer screen, dose series, 48 h
[1] = test system: MCF7 breast
[2] = test system: SNB-19 CNS
[3] = test system: CCRF-CEM leukemia
[4] = test system: SF-539 CNS
[5] = test system: LOX IMVI melanoma
[6] = test system: K-562 leukemia
[7] = test system: HCT-15 colon
[8] = test system: SN12C renal
[9] = test system: SK-MEL-28 melanoma
[10] = test system: CAKI-1 renal

Row | SMILES | TGI [1] [µM] | TGI [2] | TGI [3] [µM] | TGI [4] [µM] | TGI [5] [µM] | TGI [6] | TGI [7] [µM] | TGI [8] [µM] | TGI [9] [µM] | TGI [10] [µM] | GI50 [3] [µM] | GI50 [4] [µM] | GI50 [6] | GI50 [8] [µM] | GI50 [9] [µM] | GI50 [10] [µM] | GI50 [2] | GI50 [5] [µM] | GI50 [1] [µM] | GI50 [7] [µM]
1 | COc1cc(CNC(=S)CCCCCCCCCCC(C)C)ccc1O | > 100 | > 100 µM | > 100 | > 100 | > 100 | > 100 µM | > 100 | > 100 | > 100 |  |  |  |  |  |  |  |  |  |  | 
2 | CCOC(=O)CCC(NC(=O)OCc1ccccc1)C(=O)NC(CCC(=O)OCC)C(=O)NC(CCC(=O)OCC)C(=O)NNC(=O)OC(C)(C)C (stereo not drawn) | > 100 | > 100 µM | > 100 |  |  | > 100 µM | > 100 | > 100 | > 100 |  |  |  |  |  |  |  |  |  |  | 
3 | CC(C)(Cc1ccccc1)N1C(=O)N1C(C)(C)Cc1ccccc1 | > 100 | > 100 µM | 61.3 | > 100 | 33.6 | > 100 µM | 68.2 | > 100 | > 100 | > 100 |  |  |  |  |  |  |  |  |  | 
4 | Cc1nc2cccc(F)c2c(=O)n1-c1nnc(C(F)(F)F)s1 | > 10 | > 10 µM | > 10 | > 10 | > 10 | > 10 µM | > 10 | > 10 | > 10 | > 10 |  |  |  |  |  |  |  |  |  | 
5 | CCN(CC)/[N+]([O-])=N/O |  | > 100 µM | > 100 | > 100 | > 100 | > 100 µM | > 100 | > 100 | > 100 | > 100 |  |  |  |  |  |  |  |  |  | 
6 | CCN(CCCl)c1cccc(NC(=O)c2ccc(C(=O)Nc3cccc(CN(C)C)c3)cc2)c1 | 1.09 | 0.887 µM | 1.22 | 0.611 | 0.177 | 10.9 µM | 6.58 | 2.44 | 0.68 | 1.58 |  |  |  |  |  |  |  |  |  | 
7 | CC(C#N)N(CCc1ccccc1)C(=O)c1ccccc1 (stereo not drawn) | > 100 | > 100 µM | > 100 | > 100 | > 100 | > 100 µM | > 100 | > 100 |  | > 100 |  |  |  |  |  |  |  |  |  | 
8 | NNC(=O)Cn1ccnn1 | > 100 | > 100 µM | > 100 |  | > 100 | > 100 µM | > 100 | > 100 | > 100 | > 100 |  |  |  |  |  |  |  |  |  | 
9 | COC(=O)c1cc(C)ccc1C1CN=NC12Cc1c(C)cc(C)cc1C2=O (stereo not drawn) | 69.1 | > 100 µM | 86.5 | 32.7 | 30.3 | > 100 µM | 69.1 | > 100 | > 100 | > 100 |  |  |  |  |  |  |  |  |  | 
10 | C=C(C)[C@@H]1CC[C@]2(CO)CC[C@]3(C)[C@H](CC[C@@H]4[C@@](C)(CCCN)[C@H](C(=C)C)CC[C@]43C)[C@@H]12 |  |  | 4.76 | 2.99 |  | 4.59 µM |  | 2.75 | 3.14 | 3.21 | 1.84 | 1.63 | 1.55 µM | 1.39 | 1.75 | 1.79 |  |  |  | 
11 | NC1c2c(Cl)sc(Cl)c2C(=O)C1O (stereo not drawn) | 66 | > 100 µM | 37.7 | > 100 | 47.3 | > 100 µM | 30.1 | 29.2 |  | 47.4 |  |  |  |  |  |  |  |  |  | 
12 | Cc1c(C#N)c(=N)oc2ccccc12 | > 100 | > 100 µM |  | > 100 | > 100 | > 100 µM | > 100 | > 100 | > 100 | > 100 |  |  |  |  |  |  |  |  |  | 
13 | C[PH+](c1nc2ccccc2nc1[PH+](C)C(C)(C)C)C(C)(C)C.C[PH+](c1nc2ccccc2nc1[PH+](C)C(C)(C)C)C(C)(C)C.[Au+].[Cl-] (stereo not drawn) |  | 1.7 µM | 1.5 | 1.14 | 0.155 |  |  |  | 1.5 | 0.537 | 0.0603 | 0.053 |  |  | 0.0538 | 0.222 | 0.0453 µM | 0.0396 |  | 
14 | COc1cc2oc(=O)cc(C)c2cc1OC | > 100 | > 100 µM | > 100 | > 100 | > 100 | > 100 µM | > 100 | > 100 | > 100 |  |  |  |  |  |  |  |  |  |  | 
15 | COc1cccc(C23CCCC(C2)N(C)CC3OC(=O)c2ccccc2)c1OC (stereo not drawn) | > 100 | > 100 µM | 25 | > 100 | 45.2 | > 100 µM | 72.7 |  | 87.8 | > 100 |  |  |  |  |  |  |  |  |  | 
16 | N#Cc1c(N2CCN(c3ccc([N+](=O)[O-])cc3)CC2)[n+](=O)c2ccc(-c3ccc([N+](=O)[O-])cc3)cc2n1[O-] | > 100 | > 100 µM | > 100 | > 100 | > 100 | > 100 µM | > 100 |  | > 100 | > 100 |  |  |  |  |  |  |  |  |  | 
17 | N#C/C(=C1/c2cc([N+](=O)[O-])ccc2-c2c1cc([N+](=O)[O-])cc2[N+](=O)[O-])N1CCCCC1 | > 100 | > 100 µM | > 100 |  |  | > 100 µM | > 100 | > 100 | > 100 | > 100 |  |  |  |  |  |  |  |  |  | 

Row | SMILES | TGI [1] [µM] | TGI [2] | TGI [3] [µM] | TGI [4] [µM] | TGI [5] [µM] | TGI [6] | TGI [7] [µM] | TGI [8] [µM] | TGI [9] [µM] | TGI [10] [µM] | GI50 [3] [µM] | GI50 [4] [µM] | GI50 [6] | GI50 [8] [µM] | GI50 [9] [µM] | GI50 [10] [µM] | GI50 [2] | GI50 [5] [µM] | GI50 [1] [µM] | GI50 [7] [µM]
18 | O=C(O)CCSC1=NCCN1 | > 100 | > 100 µM | > 100 |  | > 100 | > 100 µM | > 100 | > 100 | > 100 | > 100 |  |  |  |  |  |  |  |  |  | 
19 | NC(=S)NNC(=S)NC(=O)c1ccco1 |  | > 10 µM | > 10 |  | > 10 | > 10 µM | > 10 | > 10 | > 10 | > 10 |  |  |  |  |  |  |  |  |  | 
20 | COC(=O)[C@](C)(Cc1ccccc1)NC(=O)[C@@H](C)N1[C@@H](c2ccccc2)COC1(C)C | > 100 | > 100 µM | > 100 | > 100 | > 100 | > 100 µM | > 100 |  | > 100 | > 100 |  |  |  |  |  |  |  |  |  | 
21 | C=CC(OC(C)=O)c1ccc(OC(C)=O)cc1 (stereo not drawn) | 26.5 | 28.7 µM |  | 4.78 | 9 | > 100 µM | 23.5 |  | 28.6 | 10 |  |  |  |  |  |  |  |  |  | 
22 | O=c1c(O)cccn1C1OC(CO)C(O)C1O (stereo not drawn) |  | > 100 µM | > 100 |  | > 100 | > 100 µM | > 100 | > 100 | > 100 | > 100 |  |  |  |  |  |  |  |  |  | 
23 | O=c1c2cc(Br)ccc2ncn1COCc1ccccc1 | > 100 | > 100 µM | > 100 | > 100 | > 100 | > 100 µM | > 100 |  | > 100 |  |  |  |  |  |  |  |  |  |  | 
24 | COC(=O)[C@@H]1C=C[C@H](NC(C)=O)C1 | > 100 | > 100 µM | > 100 |  | > 100 | > 100 µM | > 100 | > 100 | > 100 | > 100 |  |  |  |  |  |  |  |  |  | 
25 | O=[N+]([O-])c1ccc2nc(/C=C(\O)c3ccc(Cl)cc3)c(/C=C(\O)c3ccc(Cl)cc3)nc2c1 | > 100 | > 100 µM | > 100 | > 100 |  | > 100 µM | > 100 | > 100 |  | > 100 |  |  |  |  |  |  |  |  |  | 
26 | CC(C)(CN1CCCCC1)C(/C=C/c1ccccc1)=N\NC(=O)N/N=C(/C=C/c1ccccc1)C(C)(C)CN1CCCCC1 | 3.53 | 3.95 µM | 3.37 |  | 3.32 | 2.81 µM | 2.72 | 4.03 | 3.07 | 5.61 |  |  |  |  |  |  |  |  |  | 
27 | Cn1c(=O)n(CC2CS2)c2ccccc21 (stereo not drawn) |  | > 100 µM | > 100 | > 100 | > 100 | > 100 µM | > 100 | > 100 | > 100 | > 100 |  |  |  |  |  |  |  |  |  | 
28 | Cc1nc(Nc2nc3ccccc3[nH]2)nc(Cl)c1CCCl |  | > 100 µM | > 100 | > 100 |  | > 100 µM | > 100 | > 100 | > 100 | > 100 |  |  |  |  |  |  |  |  |  | 
29 | Cc1ccc(/C=N\NC(=O)c2ccncc2)s1 | > 100 | > 100 µM | > 100 | > 100 |  | > 100 µM | > 100 | > 100 | > 100 | > 100 |  |  |  |  |  |  |  |  |  | 
30 | C=C(CCOC)CCC1CCCCC(=C)[C@H]1O (stereo partly drawn) | > 100 | > 100 µM | > 100 |  |  | > 100 µM | > 100 | > 100 | > 100 | > 100 |  |  |  |  |  |  |  |  |  | 
31 | COc1cc(C)cc2c(-c3c(O)cc(O)c4c3C[C@H](C)N[C@H]4C)cc(-c3cc(-c4c(O)cc(O)c5c4C[C@H](C)N[C@H]5C)c4cc(C)cc(OC)c4c3O)c(O)c12 | > 100 | > 100 µM | > 100 | > 100 |  | > 100 µM | > 100 | > 100 | > 100 | > 100 |  |  |  |  |  |  |  |  |  | 
32 | CC1(C)[C@@H](OC(N)=O)C=C[C@]2(CO)[C@H]3CC[C@]4(C)[C@@H](c5ccc(=O)oc5)[C@@H](Cl)C[C@]4(O)C3=CC[C@@H]12 | 0.0299 | 0.0228 µM and 0.0461 µM | 0.0131 |  | 0.0106 | 0.0188 µM and 0.0562 µM | 0.0258 | 0.0157 | 0.0303 |  | < 0.0001 |  | 0.00354 µM and 0.0025 µM | < 0.0001 | 0.0116 |  | 0.00887 µM and 0.0025 µM | 0.00209 | < 0.0001 | 0.00481
33 | COc1cc2oc(=O)cc(C)c2c(OC)c1OC(C)=O | > 100 | > 100 µM | > 100 |  | > 100 | > 100 µM | > 100 | > 100 | > 100 |  |  |  |  |  |  |  |  |  |  | 

— PubChem BioAssay (NCI)
